Laboratory results from patent US10448639B2, “Fungicidal pyrazoles” (FMC CORPORATION, priority 2009, dated 2019).

Key:
[1] = test system: Septoria nodorum; experiment: Test F: Septoria glume blotch, preventive spray on wheat seedlings, visual disease rating; details: for Test F rating (% disease control) / Test F disease control rating: 100 = 100% disease control; for pest or weed control at 200 µg/mL: Parastagonospora nodorum, in Triticum aestivum, 192 h, read-out: Test F rating (% disease control); for Test F disease control rating: 0 = no disease control relative to controls
[2] = test system: Puccinia recondita f. sp. tritici; experiment: Test H: wheat leaf rust, curative spray on inoculated wheat seedlings, visual disease rating; details: for Test H rating (% disease control) / Test H disease control rating: wheat leaf rust, 100 = 100% disease control; for pest or weed control at 200 µg/mL: 144 h, read-out: Test H rating (% disease control); for Test H disease control rating: sprayed after inoculation, 0 = no disease control relative to controls
[3] = test system: Erysiphe graminis f sp. tritici; experiment: Test J: wheat powdery mildew, preventive spray on wheat seedlings, visual disease rating; details: for Test J rating (% disease control) / Test J disease control rating: wheat powdery mildew, 100 = 100% disease control; for pest or weed control at 200 µg/mL: Blumeria graminis, in Triticum aestivum, 192 h, read-out: Test J rating (% disease control); for Test J disease control rating: sprayed the day before inoculation, 0 = no disease control relative to controls
[4] = test system: Botrytis cinerea; experiment: Test B: tomato Botrytis, preventive spray on tomato seedlings, visual disease rating; details: for Test B rating (% disease control) / Test B disease control rating: tomato Botrytis, 100 = 100% disease control; for pest or weed control at 200 µg/mL: Botrytis cinerea, in Solanum lycopersicum, 120 h, read-out: Test B rating (% disease control); for Test B disease control rating: 0 = no disease control relative to controls
[5] = test system: Alternaria solani; experiment: Test C: tomato early blight, preventive spray on tomato seedlings, visual disease rating; details: for Test C rating (% disease control) / Test C disease control rating: tomato early blight, 100 = 100% disease control; for pest or weed control at 200 µg/mL: Alternaria solani, in Solanum lycopersicum, 168 h, read-out: Test C rating (% disease control); for Test C disease control rating: 0 = no disease control relative to controls
Source text: General protocol for preparing test suspensions for Tests A-J: the test compounds were first dissolved in acetone in an amount equal to 3% of the final volume and then suspended at the desired concentration (in ppm) in acetone and purified water (50/50 mix by volume) containing 250 ppm of the surfactant Trem® 014 (polyhydric alcohol esters). The resulting test suspensions were then used in Tests A-J. Spraying a 200 ppm test suspension to the point of run-off on the test plants was the equivalent of a rate of 500 g/ha. Unless otherwise indicated, the rating values indicate a 200 ppm test suspension was used. (An asterisk “*” next to the rating value indicates a 40 ppm test suspension was used.)
The test suspension was sprayed to the point of run-off on tomato seedlings. The following day the seedlings were inoculated with a spore suspension of Alternaria solani (the causal agent of tomato early blight) and incubated in a saturated atmosphere at 27° C. for 48 h, and then moved to a growth chamber at 20° C. for 5 days, after which time visual disease ratings were made.

[6] = test system: Puccinia recondita f. sp. tritici; experiment: Test I: wheat leaf rust, preventive spray on wheat seedlings, visual disease rating; details: for Test I rating (% disease control) / Test I disease control rating: wheat leaf rust, 100 = 100% disease control; for pest or weed control at 200 µg/mL: 192 h, read-out: Test I rating (% disease control); for Test I disease control rating: sprayed the day before inoculation, 0 = no disease control relative to controls
[7] = test system: Septoria tritici; experiment: Test G: wheat leaf blotch, preventive spray on wheat seedlings, visual disease rating; details: for Test G rating (% disease control) / Test G disease control rating: wheat leaf blotch, 100 = 100% disease control; for pest or weed control at 200 µg/mL: Zymoseptoria tritici, in Triticum aestivum, 504 h, read-out: Test G rating (% disease control); for Test G disease control rating: sprayed the day before inoculation, 0 = no disease control relative to controls
[8] = Septoria glume blotch, 0 = no control relative to controls
[9] = curative, 0 = no control relative to controls
[10] = 0 = no control relative to controls
[11] = preventive, 0 = no control relative to controls
[12] = Septoria glume blotch on wheat, preventive spray, 0 = no control
[13] = preventive spray, 0 = no control

## COc1ccc(Cl)c(Nc2c(-c3ccc(F)cc3F)c(C)nn2C)c1 [compound 227]
[1]; [8]
  Test F rating (% disease control): 0%
[2]; [9]
  Test H rating (% disease control): 0%
[3]; [10]
  Test J rating (% disease control): 98%
[4]; [10]
  Test B rating (% disease control): 87%
[5]; [10]
  Test C rating (% disease control): 0%
[6]; [11]
  Test I rating (% disease control): 74%
[7]; [10]
  Test G rating (% disease control): 99%

## Cc1nn(C)c(Oc2ccc([N+](=O)[O-])cc2Cl)c1-c1ccc(F)cc1Cl [compound 119]
[1]; [12]
  Test F rating (% disease control): 0%
[2]; curative spray, 0 = no control
  Test H rating (% disease control): 16%
[3]; [13]
  Test J rating (% disease control): 96%
[4]; [13]
  Test B rating (% disease control): 100%
[5]; [13]
  Test C rating (% disease control): 0%
[6]; [13]
  Test I rating (% disease control): 99%
[7]; [13]
  Test G rating (% disease control): 100%

## Cc1nn(C)c(Nc2ccc(Cl)cc2Cl)c1-c1c(F)cccc1F [compound 179]
[1]; [8]
  Test F rating (% disease control): 73%
[2]; [9]
  Test H rating (% disease control): 0%
[3]; [10]
  Test J rating (% disease control): 100%
[4]; [10]
  Test B rating (% disease control): 100%
[5]; [10]
  Test C rating (% disease control): 99%
[6]; [11]
  Test I rating (% disease control): 93%
[7]; [10]
  Test G rating (% disease control): 95%

## Cc1nn(C)c(Nc2c(F)cccc2F)c1-c1ccc(F)cc1Cl [Compound 172, 4-(2-chloro-4-fluorophenyl)-N-(2,6-difluorophenyl)-1,3-dimethyl-1H-pyrazol-5-amine]
[1]
  pest or weed control at 200 µg/mL: 87%
[2]
  pest or weed control at 200 µg/mL: 0%
[3]
  pest or weed control at 200 µg/mL: 100%
[4]
  pest or weed control at 200 µg/mL: 100%
[5]
  pest or weed control at 200 µg/mL: 100%
[6]
  pest or weed control at 200 µg/mL: 99%
[7]
  pest or weed control at 200 µg/mL: 100%

## COc1cc(F)c(Nc2c(-c3ccc(F)cc3Cl)c(C)nn2C)c(F)c1 [Compound 17, 4-(2-Chloro-4-fluorophenyl)-N-(2,6-difluoro-4-methoxyphenyl)-1,3-dimethyl-1H-pyrazol-5-amine]
[1]
  pest or weed control at 200 µg/mL: 93%
[2]
  pest or weed control at 200 µg/mL: 96%
[3]
  pest or weed control at 200 µg/mL: 100%
[4]
  pest or weed control at 200 µg/mL: 100%
[5]
  pest or weed control at 200 µg/mL: 100%
[6]
  pest or weed control at 200 µg/mL: 100%
[7]
  pest or weed control at 200 µg/mL: 97%

## COc1ccc(Nc2c(-c3ccc(F)cc3Cl)c(C)nn2C)c(Cl)c1 [compound 322]
[1]; Septoria glume blotch on wheat
  Test F disease control rating: 0%
[2]
  Test H disease control rating: 99%
[3]
  Test J disease control rating: 100%
[4]
  Test B disease control rating: 100%
[5]
  Test C disease control rating: 93%
[6]
  Test I disease control rating: 100%
[7]
  Test G disease control rating: 100%

## COc1cc(F)c(-c2c(C)nn(C)c2Nc2ncc(Cl)cc2Cl)c(F)c1 [compound 102]
[1]; [12]
  Test F rating (% disease control): 98%
[2]; curative spray, 0 = no control
  Test H rating (% disease control): 0%
[3]; [13]
  Test J rating (% disease control): 98%
[4]; [13]
  Test B rating (% disease control): 100%
[5]; [13]
  Test C rating (% disease control): 100%
[6]; [13]
  Test I rating (% disease control): 100%
[7]; [13]
  Test G rating (% disease control): 99%

## Cc1nn(C)c(Oc2c(F)cc(C#N)cc2F)c1-c1ccccc1Br [compound 272]
[1]; [8]
  Test F rating (% disease control): 99%
[2]; [9]
  Test H rating (% disease control): 0%
[3]; [10]
  Test J rating (% disease control): 99%
[4]; [10]
  Test B rating (% disease control): 100%
[5]; [10]
  Test C rating (% disease control): 97%
[6]; [11]
  Test I rating (% disease control): 99%
[7]; [10]
  Test G rating (% disease control): 99%

## Cc1nn(C)c(Oc2c(F)cc(C#N)cc2F)c1-c1ccccc1F [compound 305]
[1]; Septoria glume blotch on wheat
  Test F disease control rating: 94%
[2]
  Test H disease control rating: 0%
[3]
  Test J disease control rating: 99%
[4]
  Test B disease control rating: 99%
[5]
  Test C disease control rating: 99%
[6]
  Test I disease control rating: 99%
[7]
  Test G disease control rating: 100%

## Cc1nn(C)c(Oc2ccc([N+](=O)[O-])cc2)c1-c1c(F)cc(F)cc1F [compound 26]
[1]; [12]
  Test F rating (% disease control): 0%
[2]; curative spray, 0 = no control
  Test H rating (% disease control): 0%
[3]; [13]
  Test J rating (% disease control): 100%
[4]; [13]
  Test B rating (% disease control): 99%
[5]; [13]
  Test C rating (% disease control): 83%
[6]; [13]
  Test I rating (% disease control): 99%
[7]; [13]
  Test G rating (% disease control): 100%

## COc1cc(F)c(Nc2c(-c3ccc(Cl)cc3Cl)c(C)nn2C)c(F)c1 [compound 62]
[1]; [12]
  Test F rating (% disease control): 84%
[2]; curative spray, 0 = no control
  Test H rating (% disease control): 98%
[3]; [13]
  Test J rating (% disease control): 99%
[4]; [13]
  Test B rating (% disease control): 99%
[5]; [13]
  Test C rating (% disease control): 98%
[6]; [13]
  Test I rating (% disease control): 99%
[7]; [13]
  Test G rating (% disease control): 98%

## Cc1nn(C)c(Nc2c(F)cc(F)cc2F)c1-c1ccccc1Br [compound 248]
[1]; [8]
  Test F rating (% disease control): 73%
[2]; [9]
  Test H rating (% disease control): 0%
[3]; [10]
  Test J rating (% disease control): 100%
[4]; [10]
  Test B rating (% disease control): 99%
[5]; [10]
  Test C rating (% disease control): 26%
[6]; [11]
  Test I rating (% disease control): 99%
[7]; [10]
  Test G rating (% disease control): 100%

## Cc1nn(C)c(Nc2c(F)cccc2F)c1-c1ccc(Cl)cc1Cl [compound 353]
[1]; Septoria glume blotch on wheat
  Test F disease control rating: 0%
[2]
  Test H disease control rating: 3%
[3]
  Test J disease control rating: 99%
[4]
  Test B disease control rating: 97%
[5]
  Test C disease control rating: 17%
[6]
  Test I disease control rating: 99%
[7]
  Test G disease control rating: 99%

## COc1cc(F)c(Nc2c(-c3ccccc3F)c(C)nn2C)c(F)c1 [compound 183]
[1]; [8]
  Test F rating (% disease control): 67%
[2]; [9]
  Test H rating (% disease control): 27%
[3]; [10]
  Test J rating (% disease control): 99%
[4]; [10]
  Test B rating (% disease control): 97%
[5]; [10]
  Test C rating (% disease control): 100%
[6]; [11]
  Test I rating (% disease control): 94%
[7]; [10]
  Test G rating (% disease control): 99%

## COc1cc(F)c(Nc2c(-c3c(F)cccc3Cl)c(C)nn2C)c(F)c1 [compound 190]
[1]; [8]
  Test F rating (% disease control): 80%
[2]; [9]
  Test H rating (% disease control): 94%
[3]; [10]
  Test J rating (% disease control): 99%
[4]; [10]
  Test B rating (% disease control): 99%
[5]; [10]
  Test C rating (% disease control): 99%
[6]; [11]
  Test I rating (% disease control): 100%
[7]; [10]
  Test G rating (% disease control): 100%

## COc1cc(F)c(Nc2c(-c3c(F)cccc3C(F)(F)F)c(C)nn2C)c(F)c1 [compound 263]
[1]; [8]
  Test F rating (% disease control): 0%
[2]; [9]
  Test H rating (% disease control): 0%
[3]; [10]
  Test J rating (% disease control): 100%
[4]; [10]
  Test B rating (% disease control): 100%
[5]; [10]
  Test C rating (% disease control): 98%
[6]; [11]
  Test I rating (% disease control): 98%
[7]; [10]
  Test G rating (% disease control): 100%

## Cc1nn(C)c(Oc2ncc(Cl)cc2Cl)c1-c1c(F)cc(F)cc1F [compound 64]
[1]; [12]
  Test F rating (% disease control): 0%
[2]; curative spray, 0 = no control
  Test H rating (% disease control): 0%
[3]; [13]
  Test J rating (% disease control): 98%
[4]; [13]
  Test B rating (% disease control): 97%
[5]; [13]
  Test C rating (% disease control): 80%
[6]; [13]
  Test I rating (% disease control): 95%
[7]; [13]
  Test G rating (% disease control): 100%

## Cc1nn(C)c(Nc2ccc(F)cc2Cl)c1-c1ccc(F)cc1F [compound 207]
[1]; [8]
  Test F rating (% disease control): 64%
[2]; [9]
  Test H rating (% disease control): 0%
[3]; [10]
  Test J rating (% disease control): 100%
[4]; [10]
  Test B rating (% disease control): 100%
[5]; [10]
  Test C rating (% disease control): 93%
[6]; [11]
  Test I rating (% disease control): 99%
[7]; [10]
  Test G rating (% disease control): 100%

## COc1ccc(Nc2c(-c3ccc(Cl)cc3Cl)c(C)nn2C)cc1 [compound 355]
[1]; Septoria glume blotch on wheat
  Test F disease control rating: 0%
[2]
  Test H disease control rating: 3%
[3]
  Test J disease control rating: 0%
[4]
  Test B disease control rating: 99%
[5]
  Test C disease control rating: 0%
[6]
  Test I disease control rating: 91%
[7]
  Test G disease control rating: 100%
